Data set [1] deals with Cal09-WT virus. Type of data set: cell-based, influenza A(H1N1)pdm09 virus A/California/07/2009.
Data set [2] deals with A/Fujian-Licheng/SWL1661/2023. Type of data set: cell-based, influenza A(H1N1)pdm09 virus.
The subject of data set [3] is Cal09-WT virus. Type of data set: cell-based, influenza A(H1N1)pdm09 virus A/California/07/2009. The source holds these as a separate data set.
Data set [4] has as its system A/Sichuan-Shunqing/SWL11211/2023. In kind it is cell-based, influenza A(H1N1)pdm09 virus.
The conditions of data set [5]: in vivo; cited from earlier work.

Each structure is given as a SMILES string.

For the molecule `CC(=O)N[C@H]1[C@H]([C@H](O)[C@H](O)CO)OC(C(=O)O)=C[C@@H]1N=C(N)N` [zanamivir], the “sensitivity in plaque-reduction assay” value in the data set on Cal09-WT virus [1] is “remained fully sensitive”.
Consider `O=C1c2c(O)c(=O)ccn2N([C@@H]2c3ccccc3SCc3c2ccc(F)c3F)[C@@H]2COCCN12` [baloxavir], for which, in the data set on Cal09-WT virus [1], the “sensitivity in plaque-reduction assay” value was “remained high sensitivity”.
As for `CCC(CC)[C@H](NC(C)=O)[C@@H]1[C@H](O)[C@@H](C(=O)O)C[C@H]1N=C(N)N` [peramivir], the “sensitivity in plaque-reduction assay” value with Cal09-WT virus [1] is given as “remained fully sensitive”.
For the molecule `CCOC(=O)C1=C[C@@H](OC(CC)CC)[C@H](NC(C)=O)[C@@H](N)C1` [oseltamivir], in the data set with Cal09-WT virus [1], the “concentration at which plaque diameters were inhibited” value stood at 0.01 µM. For the same molecule, the “oseltamivir sensitivity” value in data set [2] and in data set [4] was “remained oseltamivir-sensitive” throughout. In addition, the “concentration at which virus replication was significantly inhibited” value in the data set with Cal09-WT virus [3] came out at 0.1 µM. In addition, the average plasma concentration in data set [5] is 0.33 µM.

Values taken from PMC12749811 (Nature Communications, 2025).
